Test results as given in PubChem BioAssay AID1996.
Values after ≈ are worked out from the molar mass of the structure shown.

Conditions: buffer; pH 7.4; 200.0 µM

| solubility kinetic [µg/mL] | SMILES |
| --- | --- |
| 12.2 (≈ 40 µM) | COc1cccc(NC(=O)COC(=O)c2sccc2C)c1 |
| 33.9 (≈ 110 µM) | CC(=O)CN1C(=O)NC(c2ccccc2)(c2ccccc2)C1=O |
| 10.1 (≈ 29.8 µM) | O=C(Nc1ccc(N2CCOCC2)cc1)c1ccc2ncsc2c1 |
| > 52.3 | Cc1ccc(C(=O)NCC(c2ccc(F)cc2)N2CCOCC2)s1 (stereo unspecified) |
| 39 (≈ 139 µM) | O=C1OC(C(=O)NCc2ccccc2)Cc2ccccc21 (stereo unspecified) |
| 27 (≈ 87.6 µM) | CCn1c(/C=C/c2ccc(O)c(O)c2)nc2ccccc2c1=O |
| 0.8 (≈ 2.54 µM) | Cc1ccc(S(=O)(=O)Nc2ccc3c(c2)nc(C)n3C)cc1 |
| 19.2 (≈ 70 µM) | C#CCOC(=O)Nc1ccc(OCC(F)(F)F)nc1 |
| > 48.2 | CC(=O)Nc1ccc(S(=O)(=O)NCc2ccc(C)n2C)cc1 |
| > 46.7 | Cc1ccc(S(=O)(=O)N2CCN(C(=O)N(C)C)CC2)cc1 |
| 37 (≈ 135 µM) | S=C(Nc1ccc2[nH]ccc2c1)NC1CCCCC1 |
| 6 (≈ 18.4 µM) | O=C(Oc1cccc(C(=S)N2CCCCC2)c1)c1ccccc1 |
| 4.4 (≈ 14.8 µM) | CN(Cc1ccc(F)cc1)Cc1nc(-c2ccccc2)no1 |
| 4.7 (≈ 17.5 µM) | O=C(Cc1ccccc1F)Nc1ccc2c(c1)CCC2 |
| 35.2 (≈ 142 µM) | OCCNc1nc2ccccc2nc1NCCO |
| > 46.9 | CCNC(=O)COC(=O)CCNC(=O)c1ccc(Cl)cc1 |
| 1.4 (≈ 2.9 µM) | CC1CCC2(CC1)NC(=O)N(CC(=O)Nc1cc(S(=O)(=O)N3CCCC3)ccc1Cl)C2=O (stereo unspecified) |
| 34.2 (≈ 111 µM) | CCN(Cc1ccccc1)C1CCN(Cc2ccccc2)CC1 |
| 8.7 (≈ 37.5 µM) | O=C(Nc1cnccn1)Nc1ccccc1F |
| > 35.8 | O=C1C2CCCN2C(=S)N1C1CCCCC1 (stereo unspecified) |
| > 47.9 | Cc1ccc(C(=O)C(C)OC(=O)Cn2c(C)csc2=O)cc1 (stereo unspecified) |
| > 31.4 | Cc1cc(C)nc(NC(C)(C)C(=O)O)n1 |
| 6.7 (≈ 19 µM) | Cc1cc(C)c(NC(=O)CNC(=O)c2ccc3ncsc3c2)c(C)c1 |
| 68.8 (≈ 138 µM) | Cc1ccc(S(=O)(=O)N2CCOCC2)cc1C(=O)N1CCN(c2ccc(C(F)(F)F)cn2)CC1 |

| solubility kinetic [µg/mL] | SMILES |
| --- | --- |
| > 35.3 | COc1cc(N2CCCC2)c(OC)cc1C=O |
| 8.1 (≈ 26.6 µM) | CC(C)(CNc1ccc([N+](=O)[O-])cc1C#N)N1CCOCC1 |
| > 33.5 | O=C(NCCC1CCCC1)c1cccs1 |
| 42.8 (≈ 137 µM) | COc1ccc(/C=C(\C#N)C(=O)ONC2=NCCCCC2)cc1 |
| 8.9 (≈ 33.3 µM) | O=C(Nc1ccncc1)c1c(Cl)cccc1Cl |
| 46.4 (≈ 133 µM) | O=C(CNC(=O)c1ccccc1)OCc1cccc(Br)c1 |
| 4.7 (≈ 17.3 µM) | Cc1cc(C(=O)NC(C)C2CC2)c(Cl)cc1Cl (stereo unspecified) |
| > 50 | CCNC(=O)CC1C(=O)N(c2ccc(C)cc2)C(=O)N1CCOC (stereo unspecified) |
| 2.2 (≈ 7.53 µM) | Cc1ccc(CNc2c(C=O)c(=O)[nH]c3ccccc23)cc1 |
| 39 | C[n+]1ccn(CC(=O)c2cccs2)c1.[Br-] |
| 10.3 (≈ 31.1 µM) | CCCCNC(=S)N1CCn2cccc2C1c1ccc(F)cc1 (stereo unspecified) |
| 5.4 (≈ 16.6 µM) | O=C(COC(=O)c1ccc(Br)cc1)NC1CCCC1 |
| > 43.2 | Cc1ccc(OCC(=O)NCCO)c(Br)c1 |
| > 37.1 | Fc1cccc(NC(=S)Nc2cccnc2)c1 |
| 40.4 (≈ 142 µM) | CCS(=O)(=O)c1ccc2c(c1)NC(=O)C(CCO)O2 (stereo unspecified) |
| 3.4 (≈ 11.6 µM) | CCOC(=O)c1sc(=S)n(Cc2ccccc2)c1C |
| > 55.7 | C[C@H](NC(=O)c1ccco1)C(=O)OCC(=O)N1CC(=O)Nc2ccccc21 |
| > 39.6 | COC(=O)CN1CC(=O)N(c2ccccc2)C1=S |
| 30.5 (≈ 138 µM) | COc1cccc(NC(=O)C2CCCO2)c1 (stereo unspecified) |
| > 62 | CCN(CC)C(=O)c1cccc(NC(=O)C2CCN(C(=O)c3cccs3)CC2)c1 |
| 43.1 (≈ 126 µM) | CCOc1ccc(NC(=O)NC(=O)N(C(C)C)S(C)(=O)=O)cc1 |
| > 46.3 | CCOC(=O)N1CCN(CC(=O)c2ccc(O)cc2O)CC1 |
| > 49.1 | Cc1ccc(OCC(=O)NCCCNC(=O)c2cccnc2)cc1 |
| > 35 | O=C(O)c1ccc(-c2cccc([N+](=O)[O-])c2)o1 |

| solubility kinetic [µg/mL] | SMILES |
| --- | --- |
| 13.4 (≈ 44.6 µM) | O=C(COC(=O)c1c[nH]c2ccccc12)NC1CCCCC1 |
| 2.1 (≈ 6.66 µM) | Cc1cc(=O)oc2cc(NC(=O)c3cc(F)ccc3F)ccc12 |
| > 50.4 | O=c1c2[nH]cnc2n(-c2cccc(F)c2)c(=O)n1Cc1ccccc1 |
| > 45.8 | O=C(c1c[nH]c2ccccc12)N1CCN(c2ccccc2)CC1 |
| > 46.8 | O=C(COc1ccccc1[N+](=O)[O-])N1CCCc2ccccc21 |
| 5.9 (≈ 15.5 µM) | CC1CCN(C(=O)CN2C(=O)NC(C)(c3ccc4ccccc4c3)C2=O)CC1 (stereo unspecified) |
| 29.4 (≈ 92.9 µM) | O=C(COC(=O)C1CC2C=CC1C2)Nc1ccccc1[N+](=O)[O-] (stereo unspecified) |
| 37.5 (≈ 132 µM) | Cc1ccc(NC(=O)C2CCCO2)c(Br)c1 (stereo unspecified) |
| 7.5 (≈ 24.2 µM) | CCC1CN(C(=O)Nc2cccc(C)c2)c2cc(C)ccc2O1 (stereo unspecified) |
| > 45.7 | COc1cc(NC(=O)c2cccnc2SC)cc(OC)c1 |
| > 45.3 | Cl.O=C(O)c1ccc(Nc2ncnc3ccccc23)cc1 |
| > 34.4 | COc1ccc(NC(=O)c2cccnn2)cc1 |
| > 58.3 | COc1ccccc1NS(=O)(=O)c1ccc(C(=O)N2CCCCCC2)cc1 |
| 0.7 (≈ 2.25 µM) | CN(C)c1ccc(NC(=O)Nc2csc3ccccc23)cc1 |
| 28.3 (≈ 84 µM) | COc1ccc(NC(=S)NCc2ccc(Cl)cc2)c(OC)c1 |
| > 51.3 | CC(C)[C@H](Nc1ccc(C(F)(F)F)cc1[N+](=O)[O-])C(=O)O.[Cl-] |
| > 33.9 | Fc1cccc(F)c1/C=N/N1CCOCC1 |
| > 51.2 | CCn1c(=O)c([N+](=O)[O-])c(NCCCn2ccnc2)c2ccccc21 |
| 31.8 (≈ 129 µM) | Cc1ccc(NC(=S)Nc2cc(C)on2)cc1 |
| > 42.8 | Cc1nc2ccccn2c(=O)c1NC(=O)c1cccs1 |
| > 41.8 | CC(C)N(C(=O)Nc1ccc2nsnc2c1)C(C)C |
| 45.4 (≈ 134 µM) | COc1ccc(C(=O)C2CCCN(S(=O)(=O)C(C)C)C2)c(C)c1 (stereo unspecified) |
| 2 (≈ 6.3 µM) | C=CCNC(=O)c1cc(-c2ccncc2)nc2c(C)cc(C)cc12 |
| > 64.3 | COc1ccc(NC(=O)c2c(F)cccc2Cl)cc1S(=O)(=O)N1CCOCC1 |

| solubility kinetic [µg/mL] | SMILES |
| --- | --- |
| 2.1 (≈ 6.24 µM) | N#C/C(=C/Nc1ccccc1F)S(=O)(=O)c1ccc(Cl)cc1 |
| > 45.4 | CC(=O)c1c(C)[nH]c(=S)c(C#N)c1-c1ccc(Cl)cc1 |
| > 55.7 | CCOC(=O)Cc1csc(NS(=O)(=O)c2ccc([N+](=O)[O-])cc2)n1 |
| 19.5 (≈ 60.4 µM) | CC(C(=O)NCC1CCCCC1)N(C)Cc1ccc(Cl)cc1 (stereo unspecified) |
| > 49.1 | Cc1ccccc1OCC(=O)NCCCNC(=O)c1ccccn1 |
| > 42.5 | COc1ccccc1CC(=O)NCCCc1ccccc1 |
| > 33.8 | CC(=O)NC(CC(=O)O)c1ccc(F)cc1 (stereo unspecified) |
| > 46 | CN(CC(=O)Nc1ccc(F)cc1)C(=O)Cc1ccsc1 |
| 1 (≈ 3.36 µM) | O=C(Nc1csc([N+](=O)[O-])c1)Nc1ccccc1Cl |
| 1.7 (≈ 5.46 µM) | CCC(=O)N/C(=N/c1nc(C)cc(C)n1)Nc1ccc(C)cc1 |
| > 41.3 | O=C(NC(Cc1ccc(O)cc1)C(=O)O)c1ccco1 (stereo unspecified) |
| 38.2 (≈ 134 µM) | Cc1nc(C)c(Oc2cccc(C(F)(F)F)c2)c(=O)[nH]1 |
| 28.5 (≈ 144 µM) | CN(C)C(=S)Nc1cccc(F)c1 |
| 0.5 (≈ 1.43 µM) | Cc1cccc(-c2noc(CCC(=O)Nc3ccc(C(N)=O)cc3)n2)c1 |
| > 43.5 | Cc1ccc(NC(=O)CCNC(=O)c2ccco2)cc1F |
| > 39.1 | Cc1ccccc1CC(=O)NCCN1CCCCC1 |
| > 49.1 | CC(C(=O)Nc1ccccc1)N1CCN(C(=O)c2ccco2)CC1 (stereo unspecified) |
| 38.3 (≈ 130 µM) | Cc1cc(=O)[nH]c(SCC(=O)N2C(C)CCCC2C)n1 (stereo unspecified) |
| 43.3 (≈ 136 µM) | COc1ccccc1NC(=S)NC12CN3CN(CN(C3)C1)C2 |
| 15.2 (≈ 46.7 µM) | CN(C)C=NC(=O)c1[nH]c2ccc(Cl)cc2c1-c1ccccc1 |
| 44.7 (≈ 133 µM) | CC(C)NC(NC(=O)/C=C/c1ccccc1)C(Cl)(Cl)Cl (stereo unspecified) |
| 32.4 | COc1cccc(-c2nc(CCl)cs2)c1OC.Cl |
| 33.7 (≈ 133 µM) | CCC(=O)c1ccc(SC(=O)N(C)C)cc1O |
| > 37.1 | Cc1ccc(C(=O)NCCN2CCNC2=O)cc1 |

| solubility kinetic [µg/mL] | SMILES |
| --- | --- |
| 31.9 (≈ 83.1 µM) | Cn1c(N)c(C(=O)COC(=O)Cc2c(F)cccc2Cl)c(=O)n(C)c1=O |
| 1.9 (≈ 5.6 µM) | C=C(C)COc1ccc(C2NC(=O)c3ccccc3O2)cc1OCC (stereo unspecified) |
| 3.5 (≈ 9.79 µM) | CCC(C(=O)OCC(=O)Nc1ccc(OC)cc1OC)c1ccccc1 (stereo unspecified) |
| 32.6 (≈ 135 µM) | CN(C)C(CNc1ncccn1)c1ccccc1 (stereo unspecified) |
| 46.2 (≈ 129 µM) | N#CCC(=O)Nc1ccc(C(=O)Nc2cccc(S(N)(=O)=O)c2)cc1 |
| 5.2 (≈ 16.8 µM) | CSC1=N/C(=C/c2cccnc2)C(=O)N1Cc1ccccc1 |
| > 43.2 | O=C(O)CCCn1c(=O)c2cccn2c2ccc(F)cc21 |
| > 33.9 | Cc1n[nH]c(=S)n1-c1ccc(Cl)cc1 |
| 6.9 (≈ 26.3 µM) | Cc1ccc(C(=O)Nc2ccc3ncccc3c2)cc1 |
| > 52.3 | Cc1csc(=O)n1CCC(=O)OC(C)C(=O)NCc1ccccc1 (stereo unspecified) |
| 14.2 (≈ 45.2 µM) | O=C(CCc1nc2ccccc2s1)OCC(=O)c1ccc[nH]1 |
| > 44.3 | O=C(CC1SCCNC1=O)Nc1cccc([N+](=O)[O-])c1 (stereo unspecified) |
| 52.4 (≈ 137 µM) | O=C(CN1C(=O)C(=O)N(Cc2ccco2)C1=O)Nc1ccc(F)c(F)c1F |
| > 52.9 | C/C(CC(=O)Nc1ccc(Cl)cc1C(F)(F)F)=N\NC(N)=S |
| 0.5 (≈ 1.84 µM) | Cc1ccc(-c2nc(-c3ccncc3)no2)c(Cl)c1 |
| > 59.7 | O=C(CN1C(=O)NC2(CCCCC2)C1=O)NCCc1ccc(Cl)cc1Cl |
| 5 (≈ 15.6 µM) | O=C(COC(=O)c1ccccc1O)NCc1ccccc1Cl |
| 33.3 (≈ 125 µM) | CC1CC(C)CN(C(=O)c2ccc3ccccc3c2)C1 (stereo unspecified) |
| 6.6 (≈ 23.7 µM) | Cn1c(-c2ccc(Cl)nc2)nc2cc(Cl)ccc21 |
| > 45.8 | COC(=O)C(NC(C)=O)(Nc1ccc(C)cn1)C(F)(F)F (stereo unspecified) |
| 39.3 (≈ 127 µM) | O=C(COC(=O)c1cccnc1)NC1CCCc2ccccc21 (stereo unspecified) |
| 1.9 (≈ 6.41 µM) | COc1ccc(NC(=O)NC2CCCc3ccccc32)cc1 (stereo unspecified) |
| 21 (≈ 139 µM) | NC(=O)COc1ccccc1 |
| > 32.7 | O=c1[nH]c2ccccc2n2c(=S)[nH]nc12 |

| SMILES | solubility kinetic [µg/mL] |
| --- | --- |
| O=c1c2ccccc2nc(/C=C/c2ccc(O)cc2)n1-c1ccccc1O | 5.2 (≈ 14.6 µM) |
